Assay results taken from US8912329B2 (priority 2009, dated 2014).

Experiments:
[1] = 250 mg oral; cited from earlier work
[2] = system: Mycobacterium tuberculosis laboratory strain H37Rv; assay: Growth inhibition / drug susceptibility testing of M. tuberculosis with MGIT 960 system, compounds combined with ethionamide; assay type: cell-based; parameters: key to growth inhibition of M. tuberculosis H37Rv (R/I/S): R: Resistance, no effect of combinatorial drug application; I: intermediate; S: sensitive

CCc1cc(C(N)=S)ccn1 [Ethionamide, 2-ethylthioiso-nicotinamide, reference compound]
cmax [1]: 2 µg/mL
t1/2 [1]: 2 h
growth inhibition of M. tuberculosis H37Rv (R/I/S) ([2]; ethionamide 0.16 μg/ml alone (Example compound 0 μM)): R
growth inhibition of M. tuberculosis H37Rv (R/I/S) ([2]; ethionamide 0.31 μg/ml alone (Example compound 0 μM)): R
growth inhibition of M. tuberculosis H37Rv (R/I/S) ([2]; ethionamide 0.625 μg/ml alone (Example compound 0 μM)): R
growth inhibition of M. tuberculosis H37Rv (R/I/S) ([2]; ethionamide 1.25 μg/ml alone (Example compound 0 μM)): R
growth inhibition of M. tuberculosis H37Rv (R/I/S) ([2]; ethionamide 2.5 μg/ml alone (Example compound 0 μM)): I
growth inhibition of M. tuberculosis H37Rv (R/I/S) ([2]; ethionamide 5 μg/ml alone (Example compound 0 μM)): S
